Measurements published in patent publication US20230203060A1 (GENFLEET THERAPEUTICS (SHANGHAI) INC., priority 2020, published 2023).
pIC50: −log10 of the molar value. Like-named read-outs stand apart in the source and are kept apart here.

How the values were obtained:
Type in all cases: cell-based, human
[1] = system: KRAS G12C mutant MIA PaCa-2 cells; test: Cell proliferation inhibition experiment, 3D spheroid, CellTiter-Glo, MIA PaCa-2; settings: 3D cell model in 384-well spheroid plate, 5 days, CellTiter-Glo, read-out: MIA-PaCa2 IC50
Description: Raw materials and instruments: MIA PaCa-2 purchased from ATCC; article number: CRL-1420; batch number: 63143594; DMEM purchased from Gibco; article number: 11995-065; batch number: 2186878; FBS purchased from Gibco; article number: 10099-141; batch number: 2109290CP; Horse Serum purchased from Gibco; article number: 16050-122; batch number: 1818976; PS purchased from Gibco; article number: 15140-122; batch number: 2145451; Trypsin-EDTA purchased from Gibco; article number: 25200-072; batch number: 2085552; CellTiter Glo working solution purchased from Promega; article number: G9683; batch number 398478; DMSO purchased from VWR AMRESCO; article number: 0231-500ML; batch number: 18C0656168; 384-well spheroid plate purchased from Corning; article number: 3830; batch number: 27519032; white opaque 384-well plate purchased from Corning; article number: 3570; batch number: 26819023; microplate reader purchased from PerkinElmer; model: Envision MLD2105-0020; equipment number 1050369.
MIA PaCa-2 is a KRAS G12C mutant human pancreatic cancer cell line, cultured in 10% FBS+2.5% Horse Serum DMEM+1% PS culture medium; cells at logarithmic growth stage were taken, digested with trypsin-EDTA, then collected and counted, and 200 MIA PaCa-2 were inoculated in a 384-well spheroid plate, respectively, and cultured overnight to establish a 3D cell model. A 3.16-fold gradient concentration stock solution of 1000× compound was prepared with DMSO, and diluted 100-fold to 10× compound stock solution with culture medium. On the second day after cell inoculation, 10× compound stock solution was added to each cell culture well, with a final concentration of 1× and a DMSO content of 0.1%. DMSO was used as experimental control (control), and culture medium was used as blank control (blank). After 5 days of compound cell culture, 30 μL of CellTiter-Glo working solution was added to each well, mixed well and incubated for 30 minutes. After standing at room temperature for 30 minutes, 40 μL of the mixed solution was transferred to a white opaque 384-well plate, and the luminescence chemiluminescence value was read with a microplate reader. The cell proliferation inhibition rate IR (%)=(RLU control -RLU compound)/(RLU control−RLU blank)×100% was calculated. The gradient dilution concentration of the compound and the corresponding cell proliferation inhibition rate were fitted by XLFit four-parameter method, and the IC50 value was calculated. The inhibitory activity of the compounds prepared in the above embodiments of the present disclosure on KRAS G12C mutant MIA PaCa-2 cells was 0.0001 μM to 0.5 μM; the inhibitory activity of some compounds on KRAS G12C mutant MIA PaCa-2 cells was 0.001 μM to 0.1 μM or 0.001 μM to 0.05 μM.

[2] = system: KRAS G12C mutant NCI-H358 cells; test: Cell proliferation inhibition experiment, 3D spheroid, CellTiter-Glo, NCI-H358; settings: NCI-H358 (KRAS G12C mutant) 3D spheroid, 5 days with compound, CellTiter-Glo, read-out: H358 IC50
Description: (§1) Raw materials and instruments: NCI-H358 purchased from ATCC; article number: CRL-5807; batch number: 70010825; A549 purchased from ATCC; article number: CCL-185; batch number: 70007820; RPMI1640 purchased from Gibco; article number: 11875-093; batch number: 2152748; F-12K purchased from Gibco; article number: 21127-022; batch number: 2185853; FBS purchased from Gibco; article number: 10099-141; batch number: 2109290CP; PS purchased from Gibco; article number: 15140-122; batch number: 2145451; Trypsin-EDTApurchased from Gibco; article number: 25200-072; batch number: 2085552; CellTiter Glo working solution purchased from Promega; article number: G9683; batch number: 398478; DMSO purchased from VWR AMRESCO; article number: 0231-500ML; batch number: 18C0656168; 384-well spheroid plate purchased from Corning; article number: 3830; batch number: 27519032; white opaque 384-well plate purchased from Corning; article number: 3570; batch number: 26819023; microplate reader purchased from PerkinElmer; model: Envision MLD2105-0020; equipment number 1050369.
(§2) NCI-H358 is a KRAS G12C mutant human non-small cell lung cancer cell line, cultured in 10% FBS RPMI-1640+1% PS culture medium; and A549 is a KRAS G12S mutant human lung adenocarcinoma cell line, cultured in 10% FBS F-12K+1% PS culture medium. Cells at logarithmic growth stage were taken, digested with trypsin-EDTA, then collected and counted. H358 was adjusted to 1.8 E4 cells/mL with 2% FBS RPMI-1640 culture medium, and A549 was adjusted to 8.9 E3 cells/mL with 2% FBS F-12K culture medium; 800 (45 μL) H358 or 400 (45 μL) A549 were inoculated respectively in a 384-well spheroid plate and cultured overnight to establish a 3D cell model. A 3.16-fold gradient concentration stock solution of 1000× compound was prepared with DMSO, and diluted 100-fold to 10× compound stock solution with 2% FBS culture medium. On the second day after cell inoculation, 5 μL of 10× compound stock solution was added to each cell culture well, with a final concentration of 1× and a DMSO content of 0.1%. DMSO was used as experimental control (control), and 2% FBS culture medium was used as blank control (blank). After 5 days of compound cell culture, 25 μL of CellTiter-Glo working solution was added to each well, mixed well at 400 rpm and incubated for 30 minutes. After standing at room temperature for 30 minutes, 40 μL of the mixed solution was transferred to a white opaque 384-well plate, and the luminescence chemiluminescence value was read with a microplate reader. The cell proliferation inhibition rate IR (%)=(RLU control -RLU compound)/(RLU control -RLU blank) x100% was calculated. The gradient dilution concentration of the compound and the corresponding cell proliferation inhibition rate were fitted by Prism 6 four-parameter method, and the IC50 value was calculated. The inhibitory activity of the compounds prepared in the above embodiments of the present disclosure on KRAS G12C mutant NCI-H358 cells was 0.0001 μM to 0.5 μM; the inhibitory activity of some compounds on KRAS G12C mutant NCI-H358 cells was 0.001 μM to 0.1 μM or 0.001 μM to 0.05 μM.

[3] = system: A549 cells (KRAS G12S mutant); test: Cell proliferation inhibition experiment, 3D spheroid, CellTiter-Glo, A549; settings: A549 (KRAS G12S mutant) 3D spheroid, 5 days with compound, CellTiter-Glo, read-out: A549 IC50
Description: as §1, §2

[4] = Homo sapiens, MIA PaCa-2, 120 h

Row | Structure (SMILES) | pIC50 [1, 4] | pIC50 ([2]; Homo sapiens, NCI-H358, 120 h) | pIC50 ([3]; Homo sapiens, A549, 120 h) | pIC50 [1] | pIC50 [2] | pIC50 [3]
1 | C=CC(=O)N1CCN2C(=O)c3c(Nc4c(C)ccnc4C(C)C)nc(-c4ccccc4F)c(Cl)c3OC[C@H]2C1 [Z8, (R)-8-acryloyl-4-chloro-3-(2-fluorophenyl)-1-((2-isopropyl-4-methylpyridin-3-yl)amino)-6,6a,7,8,9,10-hexahydro-12H-pyrazino[2,1-c]pyrido[3,4-f][1,4]oxazepin-12-one] | 6.63 | 7.29 | 5.29 | – | – | –
2 | C=CC(=O)N1CCN2C(=O)c3c(N[C@@H](C)c4ccccc4)nc(-c4c(O)cccc4F)c(Cl)c3OC[C@H]2C1 [Z29, (6aR)-8-acryloyl-4-chloro-3-(2-fluoro-6-hydroxyphenyl)-1-(((S)-1-phenylethyl)amino)-6,6a,7,8,9,10-hexahydro-12H-pyrazino[2,1-c]pyrido[3,4-f][1,4]oxazepin-12-one] | 7.11 | 7.52 | 5.61 | – | – | –
3 | C=CC(=O)N1CCN2C(=O)c3c(O[C@@H]4CCN(C)C4)nc(-c4c(O)cccc4F)c(Cl)c3OC[C@H]2C1 [Z64, (6aR)-8-acryloyl-4-chloro-3-(2-fluoro-6-hydroxyphenyl)-1-(((R)-1-methylpyrrolidin-3-yl)oxy)-6,6a,7,8,9,10-hexahydro-12H-pyrazino[2,1-c]pyrido[3,4-f][1,4]oxazepin-12-one] | 6.57 | 6.54 | < 4.52 | – | – | –
4 | C=CC(=O)N1CCN2C(=O)c3c(N4CC5CN(C)CC5C4)nc(-c4c(O)cccc4F)c(Cl)c3OC[C@H]2C1 (stereo partly drawn) [Z60, (6aR)-8-acryloyl-4-chloro-3-(2-fluoro-6-hydroxyphenyl)-1-(5-methylhexahydropyrrolo[3,4-c]pyrrol-2 (1H)-yl)-6,6a,7,8,9,10-hexahydro-12H-pyrazino[2,1-c]pyrido[3,4-f][1,4]oxazepin-12-one] | 7.03 | 6.90 | < 4.52 | – | – | –
5 | C=CC(=O)N1CCN2C(=O)c3c(N4CCOCC4)nc(-c4c(O)cccc4F)c(Cl)c3OC[C@H]2C1 [Z10, (6aR)-8-acryloyl-4-chloro-3-(2-fluoro-6-hydroxyphenyl)-1-morpholino-6,6a,7,8,9,10-hexahydro-12H-pyrazino[2,1-c]pyrido[3,4-f][1,4]oxazepin-12-one] | 7.17 | 7.41 | < 4.70 | – | – | –
6 | C=CC(=O)N1CCN2C(=O)c3c(N4CCSCC4)nc(-c4c(O)cccc4F)c(Cl)c3OC[C@H]2C1 [Z264, (6aR)-8-acryloyl-4-chloro-3-(2-fluoro-6-hydroxyphenyl)-1-thiomorpholino-6,6a,7,8,9,10-hexahydro-12H-pyrazino[2,1-c]pyrido[3,4-f][1,4]oxazepin-12-one] | 7.01 | 7.07 | 5.02 | – | – | –
7 | C=CC(=O)N1CCN2C(=O)c3c(N4CCN(C)CC45CC5)nc(-c4c(O)cccc4F)c(Cl)c3OC[C@H]2C1 [Z57, (6aR)-8-acryloyl-4-chloro-3-(2-fluoro-6-hydroxyphenyl)-1-(7-methyl-4,7-diazaspiro[2.5]octan-4-yl)-6,6a,7,8,9,10-hexahydro-12H-pyrazino[2,1-c]pyrido[3,4-f][1,4]oxazepin-12-one] | 6.93 | 6.87 | < 4.52 | – | – | –
8 | C=CC(=O)N1CCN2C(=O)c3c(N4CCC5(CCCC5)C4)nc(-c4c(O)cccc4F)c(Cl)c3OC[C@H]2C1 [Z34, (6aR)-8-acryloyl-4-chloro-3-(2-fluoro-6-hydroxyphenyl)-1-(2-azaspiro[4.4]nonan-2-yl)-6,6a,7,8,9,10-hexahydro-12H-pyrazino[2,1-c]pyrido[3,4-f][1,4]oxazepin-12-one] | 7.09 | 7.49 | 5.31 | – | – | –
9 | C=CC(=O)N1CCN2C(=O)c3c(N4CCO[C@H](C)C4)nc(-c4c(O)cccc4F)c(Cl)c3OC[C@H]2C1 [Z24, (6aR)-8-acryloyl-4-chloro-3-(2-fluoro-6-hydroxyphenyl)-1-((R)-2-methylmorpholino)-6,6a,7,8,9,10-hexahydro-12H-pyrazino[2,1-c]pyrido[3,4-f][1,4]oxazepin-12-one] | 7.44 | 7.59 | < 5.30 | – | – | –
10 | C=CC(=O)N1CCN2C(=O)c3c(N4CCC5(CCC5)C4)nc(-c4c(O)cccc4F)c(Cl)c3OC[C@H]2C1 [Z35, (6aR)-8-actyloyl-4-chloro-3-(2-fluoro-6-hydroxyphenyl)-1-(6-azaspiro[3.4]octan-6-yl)-6,6a,7,8,9,10-hexahydro-12H-pyrazino[2,1-c]pyrido[3,4-f][1,4]oxazepin-12-one] | – | – | – | 7.44 | 7.68 | < 5.30
11 | C=CC(=O)N1CCN2C(=O)c3c(N4CCO[C@@H](C)C4)nc(-c4c(O)cccc4F)c(Cl)c3OC[C@H]2C1 [Z23, (6aR)-8-acryloyl-4-chloro-3-(2-fluoro-6-hydroxyphenyl)-1-((S)-2-methylmorpholino)-6,6a,7,8,9,10-hexahydro-12H-pyrazino[2,1-c]pyrido[3,4-f][1,4]oxazepin-12-one] | 7.14 | 7.30 | < 5.30 | – | – | –
12 | C=CC(=O)N1CCN2C(=O)c3c(N4CCS(=O)(=O)CC4)nc(-c4c(O)cccc4F)c(Cl)c3OC[C@H]2C1 [Z26, (6aR)-8-acryloyl-4-chloro-1-(1,1-dioxidothiomorpholino)-3-(2-fluoro-6-hydroxyphenyl)-6,6 a,7,8,9,10-hexahydro-12H-pyrazino[2,1-c]pyrido[3,4-f][1,4]oxazepin-12-one] | – | 6.32 | < 4.52 | – | – | –
